# Reference: patent US20140194500A1 (Kookmin University Industry Academic Cooperation Foundation, priority 2013, published 2014)
# Like-named read-outs stand apart in the source and are kept apart here.
# How the values were obtained:
# HCV viral helicase, NS3h = HCV viral helicase, NS3h (Hepatitis C virus genotype 1a, UniProt P27958); format: biochemical
# HCV NS3h = HCV NS3h (Hepatitis C virus genotype 1a, UniProt P27958); format: biochemical
# [1] = molecular target: T1, SARS coronavirus helicase nsP13 (Severe acute respiratory syndrome coronavirus, UniProt P0C6X7); format: biochemical
# MCF10A cells [2] = conditions: human
# [3] = molecular target: T1, SARS coronavirus helicase nsP13; assay: biochemical; conditions: for inhibition at 10 µM: read-out: inhibition of the ATPase activity of nsP13
# MCF10A cells [4] = assay: Cytotoxicity: growth of normal breast epithelial MCF10A cells; conditions: 2 μM, counted every 24h for 3 days
# HCV viral helicase, NS3h, sequence (P27958 1193-1657): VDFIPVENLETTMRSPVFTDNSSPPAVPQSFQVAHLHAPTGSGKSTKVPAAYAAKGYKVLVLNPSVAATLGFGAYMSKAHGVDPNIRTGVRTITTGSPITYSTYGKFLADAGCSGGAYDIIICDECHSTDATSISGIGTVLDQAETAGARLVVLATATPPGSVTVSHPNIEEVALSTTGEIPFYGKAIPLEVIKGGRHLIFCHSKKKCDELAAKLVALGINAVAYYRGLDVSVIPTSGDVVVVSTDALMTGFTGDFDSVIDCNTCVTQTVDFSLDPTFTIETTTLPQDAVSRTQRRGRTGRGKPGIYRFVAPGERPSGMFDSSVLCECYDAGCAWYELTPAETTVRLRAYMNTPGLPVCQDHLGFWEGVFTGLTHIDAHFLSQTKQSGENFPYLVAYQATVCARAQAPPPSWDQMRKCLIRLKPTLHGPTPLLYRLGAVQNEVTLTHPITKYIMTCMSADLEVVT
# HCV NS3h, sequence (P27958 1193-1657): as above
molecule,measurement,setting,value
"O=c1c(O)c(-c2cc(O)c(O)c(O)c2)oc2cc(O)cc(O)c12 [No. 6, myricetin]",inhibition of the DNA unwinding activity of HCV viral helicase,"HCV viral helicase, NS3h",did not suppress the helicase activity of HCV virus
same,suppression of the ATPase activity of the HCV viral helicase,HCV NS3h,did not seem to suppress the ATPase activity of HCV helicase protein
same,"inhibition of the dsDNA-unwinding activity of SARS helicase, nsP13",[1],not inhibition of helicase activity
same,effect on the growth of MCF10A cells (viable cell number),MCF10A cells [2],did not affect the growth of MCF10A cells
Diosmetin-7-O-Glc-Xyl [No. 35],inhibition of the ATPase activity of nsP13,[3]; 10 µM,around 20%
"O=c1cc(-c2ccc(O)c(-c3c(O)cc(O)c4c(=O)cc(-c5ccc(O)cc5)oc34)c2)oc2cc(O)cc(O)c12 [No. 18, amentoflavone]",inhibition at 10 µM,[3],~20%
"CC1(C)CC[C@]2(C)CC=C3[C@]4(C)CC[C@H]5C(C)(C)[C@@H](O)CC[C@]5(C)[C@H]4CC[C@@]3(C)[C@@H]2C1 [No. 58, taraxerol]",inhibition at 10 µM,[3],~20%
"O=c1cc(-c2ccc(O)cc2)oc2cc(O)c(O)c(O)c12 [No. 8, scutellarein]",effect on the growth of MCF10A cells (viable cell number),MCF10A cells [4],did not affect the growth of MCF10A cells
same,IC50,[3],0.86 ± 0.48 µM
same,inhibition at 10 µM,[3],> 90%
